Experimental data published in patent publication US11076597B2, “High stress resistant plant growth regulator and preparation method and use thereof” (SHANGHAI INSTITUTES FOR BIOLOGICAL SCIENCES, CHINESE …, priority 2015, dated 2021).
“Also recorded” adds a separate entry of the source.

Key:
cotton = experiment: Leaf transpiration experiment, cotton; format: in vivo; details: 20 μM spray 25 days after sowing, two days after spraying; FIG. 6
Protocol: ABA synthesis mutant aba2-1 was used in Arabidopsis leaf transpiration experiment. […] Therefore, this mutant is used to exclude the effect of endogenous ABA on the transpiration experiment. The plants were sprayed with a solution containing 0.05% tween-20 and corresponding concentrations of (+)-ABA/0224/0304/0706/0715/0428 or 0.05% Tween-20 and 0.05% DMSO (control) after three weeks of continuous watering with an amount of 1.2 ml/pot. Leaf transpiration experiments of soybeans were conducted at 26° C. with long-day lighting and soybeans were sprayed with a solution containing 0.1% tween-20 and 20 μM (+)-ABA/0224/0304 compound or 0.1% Tween-20 and 0.05% DMSO (control) 14 days after sowing with an amount of 4 ml/pot; the leaf transpiration experiments of cottons were sprayed with a solution containing 0.1% tween-20 and 20 μM (+)-ABA/0224 compound or 0.1% Tween-20 and 0.05% DMSO, respectively, 25 days after sowing with an amount of 4 ml/pot; the leaf transpiration experiments of wheats were sprayed with a solution containing 0.1% tween-20 and 100 μM (+)-ABA/0224 compound or 0.1% Tween-20 and 0.05% DMSO (control) 18 days after sowing with an amount of 6 ml/pot. […]
In this experiment, the temperature change of leaf surface was observed and recorded by an infrared camera, thus reflecting the strength of plant transpiration. […]

[1] = molecular target: T1, PYL2 receptor-HAB1 protein phosphatase complex (Arabidopsis thaliana, UniProt O80992); experiment: AlphaScreen assay, PYL2 receptor binding to HAB1; format: biochemical; details: fraction of the EC50 of ABA; FIG. 2c, 2e-2g
T1 construct: made in house; host or cells: E. coli BL21 (DE3)
T1 sequence (O80992 14-188): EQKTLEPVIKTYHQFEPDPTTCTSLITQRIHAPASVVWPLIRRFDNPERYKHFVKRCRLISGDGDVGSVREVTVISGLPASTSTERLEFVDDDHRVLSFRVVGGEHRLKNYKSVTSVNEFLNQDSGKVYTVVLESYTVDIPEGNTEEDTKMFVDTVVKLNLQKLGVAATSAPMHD
T1 sequence (Q9CAJ0 172-511 partner limits assumed): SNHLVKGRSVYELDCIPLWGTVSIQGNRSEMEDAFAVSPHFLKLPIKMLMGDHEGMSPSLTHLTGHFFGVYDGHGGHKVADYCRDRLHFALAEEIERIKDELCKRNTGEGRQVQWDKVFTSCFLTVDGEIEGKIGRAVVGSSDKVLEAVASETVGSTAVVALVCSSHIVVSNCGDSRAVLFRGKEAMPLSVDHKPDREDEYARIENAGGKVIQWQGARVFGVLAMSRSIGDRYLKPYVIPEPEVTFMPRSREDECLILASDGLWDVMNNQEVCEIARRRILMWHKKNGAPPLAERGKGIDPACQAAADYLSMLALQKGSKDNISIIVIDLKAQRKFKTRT
Protocol: The AlphaScreen kit (available from Perkin Elmer) was used, and the method was as follows: a 10× buffer (50 mM MOPS, pH 7.4, 50 mM NaF, 50 mM CHAPS, 0.1 mg/ml bovine serum albumin) diluted at 1:10, each of 100 nM HAB1 with Biotin tag sequence and PYR1/PYL1/PYL2/PYL7/GmPYL6/OsPYL2 protein with dual tags of 6×His and SUMO sequences, corresponding concentrations of (+)-ABA/0224/0304/0706/0708/0713/0715/0428/NC0F4, and 5 μg/ml donor beads and acceptor beads (available from Perkin Elmer) were contained in 150 μl of experimental system. After incubating for 1.5 hours at room temperature in the dark, it was placed into an Envision Plate Reader (available from Perkin Elmer) under the programmed AlphaScreen procedure for readings.
AlphaScreen technology was used to test the ability of the compounds of the present invention to promote PYL receptor binding to PP2C protein phosphatase (HAB1).

soybean = experiment: Soil drought experiment, soybean; format: in vivo
Protocol: Soybean, cotton and wheat for leaf transpiration experiments were used simultaneously for soil drought experiments, each pot was filled with the same weight of soil to reduce experimental error. All the soybean plants were subjected to a long-day culture at 26° C. 14 days after sowing, watering was stopped and the plants with the consistent growth condition were selected for drought treatment. At the start of the drought, a solution containing 0.1% Tween-20 and 20 μM (+)-ABA/0224/0304 or 0.1% Tween-20 and 0.05% DMSO (control) was sprayed onto the leaf surface once with a spray amount of 4 ml solution/pot. Meanwhile, the position of the pot was changed and re-watered 6 days after the drought, and the photos were taken 1 day after re-watering. The drought experiment of cotton was similar to that of soybeans, watering was stopped 25 days after sowing, the plants with the consistent growth condition were selected for drought treatment. At the start of the drought, a solution containing 0.1% Tween-20 and 20 μM (+)-ABA/0224 or 0.1% Tween-20 and 0.05% DMSO (control) was sprayed onto the leaf surface once with a spray amount of 4 ml solution/pot, and then sprayed once every 3 days. Meanwhile, the position of the pot was changed and re-watered 6 days after the drought, and the photos were taken before re-watering and 1 day after re-watering. In the drought experiment of wheat, the wheat with the consistent growth condition 16 days after sowing was selected for the drought treatment, at the start of the drought, a solution with 0.1% Tween-20 and 100 μM (+)-ABA/0224 or 0.1% Tween-20 and 0.05% DMSO (control) was sprayed once, and then sprayed once every 3 days with a spray amount of 4 ml/pot. Meanwhile, the position of the pot was changed and the photos were taken 6 days after the drought.
Soil drought experiments used for compound 0428 on soybean and maize were similar to that used for compound 0224 on soybeans, with only one plant contained in each pot. All soybean plants were long-day cultured at 26° C. […]

[2] = 20 μM sprayed once, re-watering after 6 days of drought, FIG. 8

Compound	EC50 value with PYL2 receptor-HAB1 complex as fraction of that of ABA [1]	leaf temperature versus DMSO control (leaf transpiration) (cotton)	growth after drought and re-watering (soybean; [2])	growth after drought and re-watering (soybean; 50 μM sprayed once a day for two days, 9 days of drought, FIG. 14a)
CC1=CC(=O)CC(C)(C)[C@@]1(O)/C=C/C(C)=C\C(=O)O [ABA, Abscisic Acid, reference compound]		had no difference from that in the control group		
CCCN1C(=O)OC(C)(C)c2cc(NS(=O)(=O)Cc3c(F)c(F)c(C)c(F)c3F)ccc21 [Compound 0304]	1/15		significantly better than that of the control group (DMSO) or that of the soybean treated with same concentration of ABA; also recorded: significantly better growth after re-watering than that in the DMSO-sprayed control group and the plants sprayed with the same concentration of ABA	
CCCN1C(=O)OCc2cc(NS(=O)(=O)Cc3c(F)c(F)c(C)c(F)c3F)ccc21 [Compound 0428]	about ⅛			significantly better growth after re-watering than that in the DMSO-sprayed control group

Continued, in another order:

EC50 value with PYL2 receptor-HAB1 complex as fraction of that of ABA [1]	Compound	leaf temperature versus DMSO control (leaf transpiration) (cotton)	growth after drought and re-watering (soybean; [2])	growth after drought and re-watering (soybean; 50 μM sprayed once a day for two days, 9 days of drought, FIG. 14a)
⅕-⅛	Cc1c(F)c(F)c(CS(=O)(=O)Nc2ccc3c(c2)C(C)OC(=O)N3CCCF)c(F)c1F (stereo not shown) [Compound 0715]			
1/29	CCCN1C(=O)OC(C)c2cc(NS(=O)(=O)Cc3c(F)c(F)c(C)c(F)c3F)ccc21 (stereo not shown) [Compound 0224]	significantly reduce the transpiration rate of the cotton leaf; also recorded: still significant higher than that of plants in DMSO-sprayed control group	significantly better than that of the control group (DMSO) or that of the soybean treated with same concentration of ABA; also recorded: significantly better growth after re-watering than that in the DMSO-sprayed control group and the plants sprayed with the same concentration of ABA	
⅕-⅛	CCN1C(=O)OC(C)c2cc(NS(=O)(=O)Cc3c(F)c(F)c(C)c(F)c3F)ccc21 (stereo not shown) [Compound 0706]			
